In brackets after ≈: the same amount, converted by molar mass. Activity calls are given as the source filed them. No cut-off for these calls is given here.
Key:
[1] = test system: RAW264.7; experiment: Cytotoxicity against mouse RAW264.7 cells by MTT colorimetric assay in presence of LPS; assay type: functional; details: read-out: ED50 (the source's name)
[2] = Inhibition of NF-kappaB in LPS-induced mouse RAW264.7 cells assessed as inhibition of NO production after 24 hrs; assay type: cell-based
[3] = test system: Jurkat; experiment: Induction of apoptosis in human Jurkat cells; assay type: functional, cell-based
[4] = test system: RAW264.7; experiment: Inhibition of NF-kappaB in LPS-induced mouse RAW264.7 cells assessed as inhibition of iNOS expression after 24 hrs; assay type: cell-based
[5] = test system: T-cell; experiment: Induction of apoptosis in T cell leukemia; assay type: functional, cell-based
[6] = Mus musculus, RAW264.7, 24 h, read-out: IC50

Compound | IC50 [2, 6] | EC50 [1] | IC50 ([2]; raw264.7) | Activity [3] | Activity [4] | Activity [5]
O=C1CC(C/C=C/C(=O)c2cccc(OCc3ccccc3)c2)CC(=O)N1 | 3 µg/mL (≈ 8.26 µM) | 8 µg/mL | – | – | – | –
CCCCCCOC(=O)CC1CC(=O)NC(=O)C1 | > 30 µg/mL | > 30 µg/mL | – | – | – | –
CC(C)(C)OC(=O)/C=C/CC1CC(=O)NC(=O)C1 | 30 µg/mL (≈ 118 µM) | > 30 µg/mL | – | – | – | –
O=C1CC(CC(=O)NC2CCCCC2)CC(=O)N1 | > 30 µg/mL | > 30 µg/mL | – | – | – | –
C/C=C\C(C)=C\[C@@H](C)C(=O)C[C@H](O)CC1CC(=O)NC(=O)C1 | – | – | Active | Active | Active | Active
O=C(O)CC1CC(=O)NC(=O)C1 | > 30 µg/mL | > 30 µg/mL | – | – | – | –

More lines, main results first:

IC50 [2, 6] | Compound | EC50 [1] | IC50 ([2]; raw264.7) | Activity [3] | Activity [4] | Activity [5]
> 30 µg/mL | CCCCCCCCCCCCNC(=O)CC1CC(=O)NC(=O)C1 | 25 µg/mL | – | – | – | –
15 µg/mL (≈ 55.3 µM) | CCCCCCSC(=O)CC1CC(=O)NC(=O)C1 | > 30 µg/mL | – | – | – | –
> 30 µg/mL | CCCCCCNC(=O)CC1CC(=O)NC(=O)C1 | > 30 µg/mL | – | – | – | –
2 µg/mL (≈ 5.41 µM) | CCCCCCCCCCCCSC(=O)CC1CC(=O)N(C)C(=O)C1 | 8 µg/mL | – | – | – | –
1 µg/mL (≈ 2.81 µM) | CCCCCCCCCCCCSC(=O)CC1CC(=O)NC(=O)C1 | 15 µg/mL | – | – | – | –
2 µg/mL (≈ 5.21 µM) | CCCCCCCCCCCCSC(=O)CC1CC(=O)N(CC)C(=O)C1 | 20 µg/mL | – | – | – | –
> 30 µg/mL | CCCCCCCCCCCCOC(=O)CC1CC(=O)NC(=O)C1 | > 30 µg/mL | – | – | – | –

From ChEMBL document CHEMBL1153302, “Synthesis and biological evaluation on novel analogs of 9-methylstreptimidone, an inhibitor of NF-kappaB” (Bioorg Med Chem Lett, 2009)
